# According to paper PMC10098121, “Amphipathic barbiturates as marine product mimics with cytolytic and immunogenic effects on head and neck squamous cell carcinoma cell lines” (Frontiers in Pharmacology, 2023):
# Tested on: human red blood cells
# Test: Hemolysis assay
# Type: cell-based
# Settings: Homo sapiens, Erythrocyte; 1 h, 37°C; highest concentration tested 500 μM; average of three experiments; read-out: EC50 hemolytic activity against human red blood cells
# Method: The hemolytic effect of the MPMs was determined using a hemolysis assay as previously described ([Paulsen et al., 2021]). Briefly, hemolysis was determined using a heparinized fraction (10 IU/mL) of freshly drawn blood. The blood collected in ethylenediaminetetraacetic acid-containing test tubes (Vacutest, KIMA, Arzergrande, Italy) was used for the determination of the hematocrit (hct). The heparinized blood was washed 3 × with pre-warmed phosphate-buffered saline (PBS) and adjusted to a final hct of 4%. MPMs in DMSO (50 mM) were added to a 96-well polypropylene V-bottom plate (NUNC, Fisher Scientific, Oslo, Norway) and serially diluted. The test concentration range was 4–500 μM with DMSO contents ≤1%. A solution of 1% triton X-100 was used as a positive control for 100% hemolysis. As a negative control, a solution of 1% DMSO in PBS was included. Red blood cells (1% v/v final concentration) were added to the well plate and incubated at 37°C and 800 rpm for 1 h. After centrifugation (5 min, 3000 g), 100 μL from each well was transferred to a 96-well flat-bottomed microtiter plate, and absorbance was measured at 545 nm with a microplate reader (VersaMaxTM, Molecular Devices, Sunnyvale, CA, United States). The percentage of hemolysis was calculated as the ratio of the absorbance in the MPM treated and surfactant-treated samples, corrected for the PBS background. Three independent experiments were performed, and EC50 values are presented as averages.
row,Compound,EC50
1,C[N+](C)(C)CCCCN1C(=O)N(CCCC[N+](C)(C)C)C(=O)C(CCCc2ccccc2)(CCCc2ccccc2)C1=O [MPM-4:3],> 500 µM

# Tested on: HSC-3
# Test: High throughput drug screening (CellTiter-Glo, DSS)
# Type: cell-based, human
# Settings: HSC-3, 72 h, 10-100,000 nM, myogel, non-irradiated
# Method: (§1) The MPMs were screened against a panel of […] different cell lines (HSC-3, UT-SCC-8, UT-SCC-24A, UT-SCC-24B, UT-SCC-42A, UT-SCC-42B and NOF) at the High Throughput Biomedicine Unit (HTB) at the Institute for Molecular Medicine Finland (FIMM). On day 1, black-walled 384-well plates were coated with 5 µl diluted myogel (0.5 mg/ml) per well using an automated reagent dispenser (MultiFlo FX, BioTek, Winooski, VT, United States). On day 2, 500 cells per well were seeded in 20 µl of complete media using the MultiFlo FX (BioTek), and the cells were left to adhere overnight. On day 3, the MPMs, cisplatin, DMSO and Benzethonium chloride were added to the cells using an automatic liquid handler (Echo 550, Labcyte Inc., San Jose, CA, United States). Cisplatin and the MPMs were added to yield five different concentrations in a ten-fold dilution series ranging from 10 to 100,000 nM. Each concentration was tested in triplicate wells. DMSO (0.1%) and benzethonium chloride (100 µM) served as negative and positive control, respectively. Three hours later, some of the plates were irradiated with 2 Gy in a gamma irradiator (OB29/4, STS, Braunschweig, Germany). All plates were taken to the irradiation room to ensure similar handling of the plates. 72 h later, the plates were cooled to room temperature before 25 µl of CellTiter-Glo 2.0 reagent (Promega, Madison, WI, USA) was added to each well using the MultiFlo FX (BioTek). Next, the plates were centrifuged for 5 min at 1,000 rpm before the luminescence signal was measured with the PHERAstar FS HT reader (BMG LABTECH GmbH, Ortenberg, Germany). The raw data was analyzed with the Breeze software (https://breeze.fmm.fi), which normalized the luminescence signal from treated cells against the signal from negative and positive control cells to calculate the percentage of inhibition and generate dose-response curves, which were then used to calculate drug sensitivity scores (DSS). The DSS is a parameter which combines the IC50, the slope of the dose-response curve, and the minimum and maximum responses into a single metric, as previously described ([Yadav et al., 2014]). Quality control was performed by calculation of the Z′-factor, which was >0.7 for all cell lines, indicating high quality of the assay ([Zhang et al., 1999]).
row,Compound,drug sensitivity score (DSS)
1,C[N+](C)(C)CCCCN1C(=O)N(CCCC[N+](C)(C)C)C(=O)C(CCCc2ccccc2)(CCCc2ccccc2)C1=O [MPM-4:3],0

# Same assay, conditions: HSC-3; DSS irradiated (2 Gy) minus DSS non-irradiated; >5 synergy, <–5 antagonism
row,Compound,delta DSS (ΔDSS)
1,C[N+](C)(C)CCCCN1C(=O)N(CCCC[N+](C)(C)C)C(=O)C(CCCc2ccccc2)(CCCc2ccccc2)C1=O [MPM-4:3],0

# Tested on: NOF (normal oral fibroblasts)
# Test: as above
# Type: cell-based, human
# Settings: 72 h, 10-100,000 nM, myogel, non-irradiated
# Method: as §1
row,Compound,drug sensitivity score (DSS)
1,C[N+](C)(C)CCCCN1C(=O)N(CCCC[N+](C)(C)C)C(=O)C(CCCc2ccccc2)(CCCc2ccccc2)C1=O [MPM-4:3],"2,2"

# Same assay, conditions: DSS irradiated (2 Gy) minus DSS non-irradiated, >5 synergy, <–5 antagonism
row,Compound,delta DSS (ΔDSS)
1,C[N+](C)(C)CCCCN1C(=O)N(CCCC[N+](C)(C)C)C(=O)C(CCCc2ccccc2)(CCCc2ccccc2)C1=O [MPM-4:3],"-1,4"

# Tested on: UT-SCC-106A
# Test: as above
# Type: cell-based, human
# Settings: 72 h, 10-100,000 nM, myogel, non-irradiated
# Method: as §1
row,Compound,drug sensitivity score (DSS)
1,C[N+](C)(C)CCCCN1C(=O)N(CCCC[N+](C)(C)C)C(=O)C(CCCc2ccccc2)(CCCc2ccccc2)C1=O [MPM-4:3],"0,5"

# Same assay, conditions: DSS irradiated (2 Gy) minus DSS non-irradiated, >5 synergy, <–5 antagonism
row,Compound,delta DSS (ΔDSS)
1,C[N+](C)(C)CCCCN1C(=O)N(CCCC[N+](C)(C)C)C(=O)C(CCCc2ccccc2)(CCCc2ccccc2)C1=O [MPM-4:3],"-0,5"

# Tested on: UT-SCC-24A
# Test: as above
# Type: cell-based, human
# Settings: 72 h, 10-100,000 nM, myogel, non-irradiated
# Method: as §1
row,Compound,drug sensitivity score (DSS)
1,C[N+](C)(C)CCCCN1C(=O)N(CCCC[N+](C)(C)C)C(=O)C(CCCc2ccccc2)(CCCc2ccccc2)C1=O [MPM-4:3],0

# Same assay, conditions: DSS irradiated (2 Gy) minus DSS non-irradiated, >5 synergy, <–5 antagonism
row,Compound,delta DSS (ΔDSS)
1,C[N+](C)(C)CCCCN1C(=O)N(CCCC[N+](C)(C)C)C(=O)C(CCCc2ccccc2)(CCCc2ccccc2)C1=O [MPM-4:3],0

# Tested on: UT-SCC-24B
# Test: as above
# Type: cell-based, human
# Settings: 72 h, 10-100,000 nM, myogel, non-irradiated
# Method: as §1
row,Compound,drug sensitivity score (DSS)
1,C[N+](C)(C)CCCCN1C(=O)N(CCCC[N+](C)(C)C)C(=O)C(CCCc2ccccc2)(CCCc2ccccc2)C1=O [MPM-4:3],0

# Same assay, conditions: DSS irradiated (2 Gy) minus DSS non-irradiated, >5 synergy, <–5 antagonism
row,Compound,delta DSS (ΔDSS)
1,C[N+](C)(C)CCCCN1C(=O)N(CCCC[N+](C)(C)C)C(=O)C(CCCc2ccccc2)(CCCc2ccccc2)C1=O [MPM-4:3],"0,1"

# Tested on: UT-SCC-42A
# Test: as above
# Type: cell-based, human
# Settings: 72 h, 10-100,000 nM, myogel, non-irradiated
# Method: as §1
row,Compound,drug sensitivity score (DSS)
1,C[N+](C)(C)CCCCN1C(=O)N(CCCC[N+](C)(C)C)C(=O)C(CCCc2ccccc2)(CCCc2ccccc2)C1=O [MPM-4:3],"0,1"

# Same assay, conditions: DSS irradiated (2 Gy) minus DSS non-irradiated, >5 synergy, <–5 antagonism
row,Compound,delta DSS (ΔDSS)
1,C[N+](C)(C)CCCCN1C(=O)N(CCCC[N+](C)(C)C)C(=O)C(CCCc2ccccc2)(CCCc2ccccc2)C1=O [MPM-4:3],0

# Tested on: UT-SCC-42B
# Test: as above
# Type: cell-based, human
# Settings: 72 h, 10-100,000 nM, myogel, non-irradiated
# Method: as §1
row,Compound,drug sensitivity score (DSS)
1,C[N+](C)(C)CCCCN1C(=O)N(CCCC[N+](C)(C)C)C(=O)C(CCCc2ccccc2)(CCCc2ccccc2)C1=O [MPM-4:3],"0,1"

# Same assay, conditions: DSS irradiated (2 Gy) minus DSS non-irradiated, >5 synergy, <–5 antagonism
row,Compound,delta DSS (ΔDSS)
1,C[N+](C)(C)CCCCN1C(=O)N(CCCC[N+](C)(C)C)C(=O)C(CCCc2ccccc2)(CCCc2ccccc2)C1=O [MPM-4:3],"-0,1"

# Tested on: UT-SCC-8
# Test: as above
# Type: cell-based, human
# Settings: UT-SCC-8, 72 h, 10-100,000 nM, myogel, non-irradiated
# Method: as §1
row,Compound,drug sensitivity score (DSS)
1,C[N+](C)(C)CCCCN1C(=O)N(CCCC[N+](C)(C)C)C(=O)C(CCCc2ccccc2)(CCCc2ccccc2)C1=O [MPM-4:3],0

# Same assay, conditions: UT-SCC-8; DSS irradiated (2 Gy) minus DSS non-irradiated; >5 synergy, <–5 antagonism
row,Compound,delta DSS (ΔDSS)
1,C[N+](C)(C)CCCCN1C(=O)N(CCCC[N+](C)(C)C)C(=O)C(CCCc2ccccc2)(CCCc2ccccc2)C1=O [MPM-4:3],0

# Tested on: Bacillus subtilis 168
# Test: Bacterial minimum inhibitory concentration (broth microdilution)
# Type: cell-based
# Settings: Bacillus subtilis 168, 48 h, 35 °C, di-TFA salts
# Method: (§2) Method for determination of bacterial minimum inhibitory concentration (MIC) Stock solutions of the water-soluble compounds were prepared by dissolving them in ultrapure water (Milli-Q H2O, Millipore, MA, USA). The less water-soluble compounds were first dissolved in 25 - 50 µL 100% DMSO before further dilution with ultrapure water. The DMSO concentration was always less than 1% in the working concentration of each compound. A modified broth microdilution susceptibility test based on the CLSI M07-A9 protocol, [2] was used to determine minimal inhibitory concentrations (MIC). Briefly, the test compounds were two-fold diluted with ultrapure water in polystyrene 96-well flat-bottom microplates (NUNC, Roskilde, Denmark). The bacterial inoculum was diluted to 2.5 - 3 x 10^4 cells/mL in Mueller-Hinton broth (MHB, Difco Laboratories, USA) and added to the different diluted compounds in a ratio of 1:1. Positive control (ciprofloxacin, Sigma-Aldrich, USA), negative control (bacteria + water), and media control (media + water) were included in each experiment. The microplates were incubated for 48 h at 35 °C in an EnVision microplate reader (PerkinElmer, Waltham, MA, USA). The lowest concentration of compounds that caused no bacterial growth, as determined by optical density (OD600) measurements, was defined as the MIC value. All compounds were tested in 3 technical replicates.
# (§3) Supplementary Video S1. HSC-3 cells were seeded at 100% confluence and a standard scratch wound migration assay was performed. The cells were imaged every 2 hours for 24 hours. The video
row,Compound,MIC
1,C[N+](C)(C)CCCCN1C(=O)N(CCCC[N+](C)(C)C)C(=O)C(CCCc2ccccc2)(CCCc2ccccc2)C1=O [MPM-4:3],> 64 µg/mL

# Tested on: Escherichia coli ATCC 25922
# Test: as above
# Type: cell-based
# Settings: ATCC25922; Escherichia coli ATCC 25922, 48 h, 35 °C, di-TFA salts
# Method: as §2, §3
row,Compound,MIC
1,C[N+](C)(C)CCCCN1C(=O)N(CCCC[N+](C)(C)C)C(=O)C(CCCc2ccccc2)(CCCc2ccccc2)C1=O [MPM-4:3],64 µg/mL

# Tested on: Pseudomonas aeruginosa ATCC 27853
# Test: as above
# Type: cell-based
# Settings: ATCC27853; Pseudomonas aeruginosa ATCC 27853, 48 h, 35 °C, di-TFA salts
# Method: as §2, §3
row,Compound,MIC
1,C[N+](C)(C)CCCCN1C(=O)N(CCCC[N+](C)(C)C)C(=O)C(CCCc2ccccc2)(CCCc2ccccc2)C1=O [MPM-4:3],> 64 µg/mL

# Tested on: Staphylococcus aureus ATCC 9144
# Test: as above
# Type: cell-based
# Settings: ATCC9144; Staphylococcus aureus ATCC 9144, 48 h, 35 °C, di-TFA salts
# Method: as §2, §3
row,Compound,MIC
1,C[N+](C)(C)CCCCN1C(=O)N(CCCC[N+](C)(C)C)C(=O)C(CCCc2ccccc2)(CCCc2ccccc2)C1=O [MPM-4:3],64 µg/mL

# Tested on: seven HNSCC cell lines and one normal oral fibroblast cell line (NOF)
# Test: High throughput drug screening, statements on the whole panel
# Type: cell-based, human
# Settings: 72 h, DSS
# Method: as §1
row,Compound,potency / effect on viability over the cell line panel (in words)
1,C[N+](C)(C)CCCCN1C(=O)N(CCCC[N+](C)(C)C)C(=O)C(CCCc2ccccc2)(CCCc2ccccc2)C1=O [MPM-4:3],completely inactive
